Measurements from ChEMBL document CHEMBL1131246, “Design, synthesis, and biological evaluation of a second generation of pyrazolo[4,3-e]-1,2,4-triazolo[1,5-c]pyrimidines as potent and selective A2A adenosine receptor antagonists” (J Med Chem, 1998).

Experiments:
Adenosine receptor A2a [1] = biological target: T1, Adenosine receptor A2a (Homo sapiens, UniProt P29274); assay: Inhibition of 1 uM NECA-stimulated cyclic AMP levels in human platelets; assay type: functional
[2] = Selectivity for human A3 adenosine receptor and rat A2A adenosine receptor
Adenosine receptor A1 [3] = biological target: T2, Adenosine receptor A1 (Rattus norvegicus, UniProt P25099)
T2 sequence (P25099 whole entry): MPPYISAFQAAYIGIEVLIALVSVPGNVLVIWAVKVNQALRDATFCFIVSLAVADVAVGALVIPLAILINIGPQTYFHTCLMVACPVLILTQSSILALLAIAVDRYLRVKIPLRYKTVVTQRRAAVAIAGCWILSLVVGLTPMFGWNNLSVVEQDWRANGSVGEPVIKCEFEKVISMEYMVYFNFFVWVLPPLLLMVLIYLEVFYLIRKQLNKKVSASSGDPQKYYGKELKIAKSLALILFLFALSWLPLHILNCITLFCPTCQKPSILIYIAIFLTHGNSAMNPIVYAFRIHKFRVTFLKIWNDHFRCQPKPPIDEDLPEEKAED
Description: Displacement of [3H]CHA from rat cortical membrane Adenosine A1 receptor. Parenthesis indicate 95% confidence limit.

Adenosine receptor A2a [4] = biological target: Adenosine receptor A2a (Rattus norvegicus, UniProt P30543)
Chain of Adenosine receptor A2a (Rattus norvegicus, UniProt P30543) (P30543 whole entry): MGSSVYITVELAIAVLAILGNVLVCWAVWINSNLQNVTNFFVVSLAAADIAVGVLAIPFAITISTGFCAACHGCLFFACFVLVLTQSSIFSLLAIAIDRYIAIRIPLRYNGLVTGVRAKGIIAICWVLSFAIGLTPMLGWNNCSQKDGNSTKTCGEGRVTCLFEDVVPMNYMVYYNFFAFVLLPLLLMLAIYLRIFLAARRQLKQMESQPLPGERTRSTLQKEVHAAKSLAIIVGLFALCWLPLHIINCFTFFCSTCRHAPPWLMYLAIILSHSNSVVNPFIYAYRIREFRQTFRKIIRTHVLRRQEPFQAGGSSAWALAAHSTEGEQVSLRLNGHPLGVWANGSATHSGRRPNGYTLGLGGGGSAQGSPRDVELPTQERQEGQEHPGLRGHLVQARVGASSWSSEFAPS

Adenosine receptor A3 [5] = biological target: T3, Adenosine receptor A3 (Homo sapiens, UniProt P0DMS8); assay: biochemical
T3 sequence (P0DMS8 whole entry): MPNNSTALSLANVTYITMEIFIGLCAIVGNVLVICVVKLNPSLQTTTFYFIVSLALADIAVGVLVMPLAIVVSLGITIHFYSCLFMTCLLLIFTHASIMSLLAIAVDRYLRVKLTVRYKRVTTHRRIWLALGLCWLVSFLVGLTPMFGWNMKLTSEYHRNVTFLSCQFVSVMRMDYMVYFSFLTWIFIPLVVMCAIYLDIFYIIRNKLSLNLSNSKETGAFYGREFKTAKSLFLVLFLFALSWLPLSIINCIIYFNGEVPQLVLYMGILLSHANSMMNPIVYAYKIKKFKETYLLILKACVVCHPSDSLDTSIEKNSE
Description: (§1) Displacement of [125I]AB-MECA from human Adenosine A3 receptor expressed in HEK293 cells

Adenosine receptor A1 [6] = biological target: T4, Adenosine receptor A1 (Homo sapiens, UniProt P30542); assay: Displacement of [3H]CHA from human Adenosine A1 receptor expressed in CHO cells; assay type: cell-based
T4 sequence (P30542 whole entry): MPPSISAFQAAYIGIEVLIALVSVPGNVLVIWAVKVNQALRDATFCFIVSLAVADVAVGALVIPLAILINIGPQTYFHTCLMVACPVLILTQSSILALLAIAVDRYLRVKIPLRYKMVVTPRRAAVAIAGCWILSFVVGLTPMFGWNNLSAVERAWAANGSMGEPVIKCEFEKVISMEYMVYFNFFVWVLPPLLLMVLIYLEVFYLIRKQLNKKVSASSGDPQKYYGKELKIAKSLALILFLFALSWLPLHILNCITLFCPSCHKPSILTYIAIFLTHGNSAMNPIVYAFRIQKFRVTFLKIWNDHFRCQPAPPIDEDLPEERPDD

Adenosine receptor A2a [7] = biological target: T1, Adenosine receptor A2a; assay: Displacement of [3H]-SCH- 58261 from human Adenosine A2A receptor expressed in CHO cells; assay type: cell-based
Adenosine receptor A3 [8] = biological target: T3, Adenosine receptor A3; assay: biochemical; remark: listed apart in the source
Description: as §1

T1 sequence (P29274 whole entry): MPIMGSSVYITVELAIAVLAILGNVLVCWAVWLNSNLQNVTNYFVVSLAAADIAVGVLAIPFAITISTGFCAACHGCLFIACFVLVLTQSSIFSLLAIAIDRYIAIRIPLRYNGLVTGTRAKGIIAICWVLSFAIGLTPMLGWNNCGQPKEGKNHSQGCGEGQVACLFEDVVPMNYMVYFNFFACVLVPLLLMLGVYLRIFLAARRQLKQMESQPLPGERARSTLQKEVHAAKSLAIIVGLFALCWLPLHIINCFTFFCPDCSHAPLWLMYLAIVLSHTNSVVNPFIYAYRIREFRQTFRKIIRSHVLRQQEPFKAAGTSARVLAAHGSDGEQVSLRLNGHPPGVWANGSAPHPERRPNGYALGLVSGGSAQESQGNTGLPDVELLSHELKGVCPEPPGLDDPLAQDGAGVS

| IC50 (Adenosine receptor A2a [1]) [µM] | Selectivity [2] | Ki (Adenosine receptor A1 [3]) [µM] | Ki (Adenosine receptor A2a [4]) [µM] | Ki (Adenosine receptor A3 [5]) [µM] | Ki (Adenosine receptor A1 [6]) [µM] | Ki (Adenosine receptor A2a [7]) [µM] | Ki (Adenosine receptor A3 [8]) [µM] | Compound |
| --- | --- | --- | --- | --- | --- | --- | --- | --- |
| 0.149 | > 188 | 13.4 | 0.053 | > 10 | – | – | – | Nc1nc2c(cnn2Cc2ccc(O)cc2)c2nc(-c3ccco3)nn12 |
| 0.008 | > 2630 | 1.84 | 0.0038 | > 10 | 2.17 | 0.0033 | > 10 | Nc1nc2c(cnn2CCCc2ccc3c(c2)OCO3)c2nc(-c3ccco3)nn12 |
| 0.02 | > 1890 | 2.83 | 0.0053 | > 10 | 1.65 | 0.0027 | > 10 | COc1ccc(CCCn2ncc3c2nc(N)n2nc(-c4ccco4)nc32)cc1OC |
| 0.06 | > 204 | 2.25 | 0.049 | > 10 | – | – | – | Nc1nc2c(cnn2CCCc2ccc(O)c(O)c2)c2nc(-c3ccco3)nn12 |
| – | – | – | – | > 10 | – | – | – | Nc1nc2c(cnn2CCc2ccccc2)c2nc(-c3ccco3)nn12 [SCH-58261] |
| 0.3 | > 222 | 1.46 | 0.045 | > 10 | – | – | – | Nc1nc2c(cnn2CCCc2ccc(OCc3ccccc3)cc2)c2nc(-c3ccco3)nn12 |
| – | – | – | – | > 10 | – | – | – | Nc1nc2c(cnn2CCCc2ccccc2)c2nc(-c3ccco3)nn12 [SCH-63390] |
| 0.014 | > 5880 | 0.444 | 0.0017 | > 10 | – | – | – | Nc1nc2c(cnn2CCc2ccc(O)cc2)c2nc(-c3ccco3)nn12 |
| 0.01 | > 10600 | 0.741 | 0.00094 | > 10 | 0.253 | 0.0015 | > 10 | Nc1nc2c(cnn2CCCc2ccc(O)cc2)c2nc(-c3ccco3)nn12 |
| 0.09 | > 169 | > 10 | 0.059 | > 10 | – | – | – | Nc1nc2c(cnn2CCc2ccc(OCc3ccccc3)cc2)c2nc(-c3ccco3)nn12 |
| 0.5 | > 40 | 9.45 | 0.246 | > 10 | – | – | – | Nc1nc2c(cnn2Cc2ccc(OCc3ccccc3)cc2)c2nc(-c3ccco3)nn12 |

| Compound | IC50 (Adenosine receptor A2a [1]) [µM] | Selectivity [2] | Ki (Adenosine receptor A1 [3]) [µM] | Ki (Adenosine receptor A2a [4]) [µM] | Ki (Adenosine receptor A3 [5]) [µM] | Ki (Adenosine receptor A1 [6]) [µM] | Ki (Adenosine receptor A2a [7]) [µM] | Ki (Adenosine receptor A3 [8]) [µM] |
| --- | --- | --- | --- | --- | --- | --- | --- | --- |
| Nc1nc2ccc(Cl)cc2c2nc(-c3ccco3)nn12 [CGS-15943] | – | – | – | 0.00095 | 0.014 | – | – | – |
